Values quoted from earlier work in patent US7776915B2, “Topical formulations and methods of use” (Tracie Martyn International, LLC, priority 2005, dated 2010).
Values belong to the compound of their own block, whether it stands above or below them.

Assays:
neurites in the brain = details: similar to the stimulating effect of nerve growth factor
ACE = ACE (Homo sapiens, UniProt P12821); details: read-out: ACE inhibitor IC50
[1] = dosages above 500 mg/kg body weight

ACE, sequence (P12821 30-1306, species assumed): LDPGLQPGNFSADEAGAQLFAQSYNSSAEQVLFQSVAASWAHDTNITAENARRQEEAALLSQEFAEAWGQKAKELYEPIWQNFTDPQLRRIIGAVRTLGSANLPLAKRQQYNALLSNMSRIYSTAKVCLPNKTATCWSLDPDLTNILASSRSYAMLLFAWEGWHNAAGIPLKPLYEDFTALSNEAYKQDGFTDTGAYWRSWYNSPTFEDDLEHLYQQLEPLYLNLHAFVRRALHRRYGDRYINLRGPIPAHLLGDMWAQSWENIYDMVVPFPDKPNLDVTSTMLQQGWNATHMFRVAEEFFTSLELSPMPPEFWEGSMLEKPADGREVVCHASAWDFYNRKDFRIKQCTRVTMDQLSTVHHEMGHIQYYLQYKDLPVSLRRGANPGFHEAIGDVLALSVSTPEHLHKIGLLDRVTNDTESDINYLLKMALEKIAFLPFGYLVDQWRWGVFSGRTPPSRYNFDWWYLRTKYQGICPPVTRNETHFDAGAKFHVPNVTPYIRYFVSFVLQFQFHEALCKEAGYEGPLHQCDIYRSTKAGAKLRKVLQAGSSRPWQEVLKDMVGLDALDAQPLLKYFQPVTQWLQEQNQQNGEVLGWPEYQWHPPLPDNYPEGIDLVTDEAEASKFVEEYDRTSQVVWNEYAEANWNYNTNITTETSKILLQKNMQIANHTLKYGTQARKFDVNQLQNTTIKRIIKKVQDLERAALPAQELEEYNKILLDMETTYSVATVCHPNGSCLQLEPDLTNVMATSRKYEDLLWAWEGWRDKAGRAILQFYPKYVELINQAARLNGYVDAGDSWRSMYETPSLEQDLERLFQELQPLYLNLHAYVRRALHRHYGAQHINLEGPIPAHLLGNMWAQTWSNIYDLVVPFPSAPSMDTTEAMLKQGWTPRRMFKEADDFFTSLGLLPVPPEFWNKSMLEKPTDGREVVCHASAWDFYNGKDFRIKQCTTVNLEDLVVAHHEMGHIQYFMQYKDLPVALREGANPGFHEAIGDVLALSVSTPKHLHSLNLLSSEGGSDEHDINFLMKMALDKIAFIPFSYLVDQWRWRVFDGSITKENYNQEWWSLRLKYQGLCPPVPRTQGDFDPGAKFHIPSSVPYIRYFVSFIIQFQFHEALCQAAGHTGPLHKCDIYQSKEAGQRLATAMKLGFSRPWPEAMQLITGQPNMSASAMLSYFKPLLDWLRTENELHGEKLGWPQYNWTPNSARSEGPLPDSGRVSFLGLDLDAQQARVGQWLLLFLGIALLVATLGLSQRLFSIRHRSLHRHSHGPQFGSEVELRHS

SMILES: CC(=O)O[C@H](CC(=O)[O-])C[N+](C)(C)C.NC(N)=NCCC[C@H](N)C(=O)O [Acetyl-1-carnitine-arginate]
stimulation of the growth of neurites (neurites in the brain): ≤ 19.5%

IC50 (ACE): 10.4 µM
SMILES: N[C@@H](CCC(=O)N[C@@H](CS)C(=O)NCC(=O)O)C(=O)O [Glutathione]

water solubility: water-soluble
SMILES: Cc1ncc(CO)c(CN)c1O [Pyridoxamine, 4-aminomethyl-5-hydroxy-6-methyl-3-pyridinemethanol]

SMILES: NCCC(=O)N[C@@H](Cc1cnc[nH]1)C(=O)O [Carnosine, β-alanyl-L-histidine]
safety in animal studies [1]: safe
